Assay results published in ChEMBL document CHEMBL3784917, “Recent Progress in Histone Demethylase Inhibitors” (J Med Chem, 2016).

Legend:
[1] = biological target: T1, Lysine-specific demethylase 5A (Homo sapiens, UniProt P29375)
[2] = biological target: T2, Lysine-specific demethylase 5B (Homo sapiens, UniProt Q9UGL1); experiment: biochemical
[3] = biological target: T3, Lysine-specific demethylase 2B (Homo sapiens, UniProt Q8NHM5); experiment: biochemical
T3 sequence (Q8NHM5 whole entry): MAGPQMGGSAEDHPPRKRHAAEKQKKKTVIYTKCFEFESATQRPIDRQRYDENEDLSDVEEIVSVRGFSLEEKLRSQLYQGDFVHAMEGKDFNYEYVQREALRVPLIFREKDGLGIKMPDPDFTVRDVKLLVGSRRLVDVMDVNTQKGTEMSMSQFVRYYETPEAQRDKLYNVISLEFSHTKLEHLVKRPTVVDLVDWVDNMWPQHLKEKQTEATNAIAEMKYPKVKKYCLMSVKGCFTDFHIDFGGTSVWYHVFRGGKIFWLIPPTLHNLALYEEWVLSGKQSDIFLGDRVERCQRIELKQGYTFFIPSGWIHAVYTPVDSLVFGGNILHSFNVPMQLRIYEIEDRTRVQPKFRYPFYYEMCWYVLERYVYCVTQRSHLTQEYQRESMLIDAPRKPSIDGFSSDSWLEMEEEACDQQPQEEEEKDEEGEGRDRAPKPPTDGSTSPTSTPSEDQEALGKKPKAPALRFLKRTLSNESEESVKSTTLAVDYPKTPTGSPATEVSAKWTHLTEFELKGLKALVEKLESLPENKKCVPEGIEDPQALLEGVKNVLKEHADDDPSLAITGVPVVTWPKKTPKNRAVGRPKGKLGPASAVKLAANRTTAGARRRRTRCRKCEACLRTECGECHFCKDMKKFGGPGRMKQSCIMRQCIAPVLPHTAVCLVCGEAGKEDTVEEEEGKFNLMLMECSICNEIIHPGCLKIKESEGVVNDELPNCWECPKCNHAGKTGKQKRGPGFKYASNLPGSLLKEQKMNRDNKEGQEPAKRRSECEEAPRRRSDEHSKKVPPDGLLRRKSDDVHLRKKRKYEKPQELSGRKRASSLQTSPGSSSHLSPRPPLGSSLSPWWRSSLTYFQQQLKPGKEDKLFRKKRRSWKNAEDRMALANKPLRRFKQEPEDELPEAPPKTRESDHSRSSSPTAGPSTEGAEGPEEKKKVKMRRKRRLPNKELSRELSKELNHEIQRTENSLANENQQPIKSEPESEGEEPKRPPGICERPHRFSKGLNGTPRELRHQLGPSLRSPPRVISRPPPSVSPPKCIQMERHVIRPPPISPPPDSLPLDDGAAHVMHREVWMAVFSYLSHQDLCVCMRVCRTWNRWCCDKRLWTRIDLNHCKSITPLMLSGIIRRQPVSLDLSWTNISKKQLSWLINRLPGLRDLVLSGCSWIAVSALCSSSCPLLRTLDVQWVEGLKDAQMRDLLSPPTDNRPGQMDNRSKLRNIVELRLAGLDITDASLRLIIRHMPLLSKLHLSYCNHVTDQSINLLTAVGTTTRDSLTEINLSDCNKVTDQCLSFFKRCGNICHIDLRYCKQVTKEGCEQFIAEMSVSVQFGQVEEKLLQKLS

[4] = biological target: T2, Lysine-specific demethylase 5B
[5] = biological target: T4, Lysine-specific demethylase 4A (Homo sapiens, UniProt O75164)
T4 sequence (O75164 whole entry): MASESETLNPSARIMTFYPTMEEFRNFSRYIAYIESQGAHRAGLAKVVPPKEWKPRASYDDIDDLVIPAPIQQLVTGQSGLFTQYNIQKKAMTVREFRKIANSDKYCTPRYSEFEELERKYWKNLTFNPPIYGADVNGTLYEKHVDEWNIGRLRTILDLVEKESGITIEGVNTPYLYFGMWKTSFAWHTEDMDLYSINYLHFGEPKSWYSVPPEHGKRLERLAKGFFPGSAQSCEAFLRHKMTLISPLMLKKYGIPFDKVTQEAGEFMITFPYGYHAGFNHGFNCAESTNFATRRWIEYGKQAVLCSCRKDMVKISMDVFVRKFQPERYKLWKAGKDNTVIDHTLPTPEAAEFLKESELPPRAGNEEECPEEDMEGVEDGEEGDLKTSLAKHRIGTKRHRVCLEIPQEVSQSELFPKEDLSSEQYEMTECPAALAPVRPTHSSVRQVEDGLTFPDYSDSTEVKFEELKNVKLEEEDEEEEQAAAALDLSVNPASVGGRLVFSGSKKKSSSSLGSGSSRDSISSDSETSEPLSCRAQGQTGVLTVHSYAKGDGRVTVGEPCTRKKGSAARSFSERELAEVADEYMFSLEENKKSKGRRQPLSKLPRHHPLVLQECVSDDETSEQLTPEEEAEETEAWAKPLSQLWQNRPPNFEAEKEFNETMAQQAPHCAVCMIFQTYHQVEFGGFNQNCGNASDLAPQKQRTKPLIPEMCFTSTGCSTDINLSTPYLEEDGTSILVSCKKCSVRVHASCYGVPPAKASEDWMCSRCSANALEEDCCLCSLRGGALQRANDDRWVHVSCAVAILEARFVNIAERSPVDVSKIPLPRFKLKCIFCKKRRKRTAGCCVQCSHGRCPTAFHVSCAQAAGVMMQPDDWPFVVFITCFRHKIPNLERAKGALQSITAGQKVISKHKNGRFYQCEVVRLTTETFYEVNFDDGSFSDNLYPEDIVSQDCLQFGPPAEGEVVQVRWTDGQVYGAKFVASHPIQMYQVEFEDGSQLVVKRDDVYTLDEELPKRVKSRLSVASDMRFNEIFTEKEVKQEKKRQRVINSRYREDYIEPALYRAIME

[6] = biological target: T1, Lysine-specific demethylase 5A; experiment: biochemical
[7] = biological target: T5, Lysine-specific demethylase 4C (Homo sapiens, UniProt Q9H3R0); experiment: biochemical
T5 sequence (Q9H3R0 whole entry): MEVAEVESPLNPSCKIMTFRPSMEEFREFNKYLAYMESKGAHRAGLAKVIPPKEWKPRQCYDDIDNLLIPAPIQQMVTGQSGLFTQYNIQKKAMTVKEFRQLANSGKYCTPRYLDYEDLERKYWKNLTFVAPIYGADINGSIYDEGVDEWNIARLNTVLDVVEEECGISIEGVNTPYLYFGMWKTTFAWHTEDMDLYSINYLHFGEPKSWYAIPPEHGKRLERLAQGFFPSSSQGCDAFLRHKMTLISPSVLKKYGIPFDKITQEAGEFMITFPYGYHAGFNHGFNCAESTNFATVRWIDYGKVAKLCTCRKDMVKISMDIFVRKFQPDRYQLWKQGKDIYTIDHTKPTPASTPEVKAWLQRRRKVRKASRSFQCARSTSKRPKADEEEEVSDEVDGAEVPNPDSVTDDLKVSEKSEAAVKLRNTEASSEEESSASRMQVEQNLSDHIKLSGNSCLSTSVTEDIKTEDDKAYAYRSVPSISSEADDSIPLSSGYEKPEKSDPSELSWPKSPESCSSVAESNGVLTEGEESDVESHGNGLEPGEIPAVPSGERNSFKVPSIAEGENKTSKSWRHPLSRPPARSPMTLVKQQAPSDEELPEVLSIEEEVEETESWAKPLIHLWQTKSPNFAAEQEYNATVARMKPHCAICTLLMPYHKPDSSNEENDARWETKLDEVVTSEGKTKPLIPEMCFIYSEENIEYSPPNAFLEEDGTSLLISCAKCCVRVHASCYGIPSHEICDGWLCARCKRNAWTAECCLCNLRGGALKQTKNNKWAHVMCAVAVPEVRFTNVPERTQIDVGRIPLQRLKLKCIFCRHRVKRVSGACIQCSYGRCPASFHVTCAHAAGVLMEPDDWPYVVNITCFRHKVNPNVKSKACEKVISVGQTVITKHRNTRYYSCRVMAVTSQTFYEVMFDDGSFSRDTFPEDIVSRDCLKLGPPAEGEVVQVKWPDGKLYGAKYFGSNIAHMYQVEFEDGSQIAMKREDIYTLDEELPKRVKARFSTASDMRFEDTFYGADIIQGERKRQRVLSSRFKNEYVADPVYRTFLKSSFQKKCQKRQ

cells = details: Homo sapiens, KYSE-150, 168 h
[8] = biological target: T2, Lysine-specific demethylase 5B; remark: listed apart in the source
[9] = biological target: Lysine-specific demethylase 6A (Homo sapiens, UniProt O15550)
Chain of Lysine-specific demethylase 6A (O15550 whole entry): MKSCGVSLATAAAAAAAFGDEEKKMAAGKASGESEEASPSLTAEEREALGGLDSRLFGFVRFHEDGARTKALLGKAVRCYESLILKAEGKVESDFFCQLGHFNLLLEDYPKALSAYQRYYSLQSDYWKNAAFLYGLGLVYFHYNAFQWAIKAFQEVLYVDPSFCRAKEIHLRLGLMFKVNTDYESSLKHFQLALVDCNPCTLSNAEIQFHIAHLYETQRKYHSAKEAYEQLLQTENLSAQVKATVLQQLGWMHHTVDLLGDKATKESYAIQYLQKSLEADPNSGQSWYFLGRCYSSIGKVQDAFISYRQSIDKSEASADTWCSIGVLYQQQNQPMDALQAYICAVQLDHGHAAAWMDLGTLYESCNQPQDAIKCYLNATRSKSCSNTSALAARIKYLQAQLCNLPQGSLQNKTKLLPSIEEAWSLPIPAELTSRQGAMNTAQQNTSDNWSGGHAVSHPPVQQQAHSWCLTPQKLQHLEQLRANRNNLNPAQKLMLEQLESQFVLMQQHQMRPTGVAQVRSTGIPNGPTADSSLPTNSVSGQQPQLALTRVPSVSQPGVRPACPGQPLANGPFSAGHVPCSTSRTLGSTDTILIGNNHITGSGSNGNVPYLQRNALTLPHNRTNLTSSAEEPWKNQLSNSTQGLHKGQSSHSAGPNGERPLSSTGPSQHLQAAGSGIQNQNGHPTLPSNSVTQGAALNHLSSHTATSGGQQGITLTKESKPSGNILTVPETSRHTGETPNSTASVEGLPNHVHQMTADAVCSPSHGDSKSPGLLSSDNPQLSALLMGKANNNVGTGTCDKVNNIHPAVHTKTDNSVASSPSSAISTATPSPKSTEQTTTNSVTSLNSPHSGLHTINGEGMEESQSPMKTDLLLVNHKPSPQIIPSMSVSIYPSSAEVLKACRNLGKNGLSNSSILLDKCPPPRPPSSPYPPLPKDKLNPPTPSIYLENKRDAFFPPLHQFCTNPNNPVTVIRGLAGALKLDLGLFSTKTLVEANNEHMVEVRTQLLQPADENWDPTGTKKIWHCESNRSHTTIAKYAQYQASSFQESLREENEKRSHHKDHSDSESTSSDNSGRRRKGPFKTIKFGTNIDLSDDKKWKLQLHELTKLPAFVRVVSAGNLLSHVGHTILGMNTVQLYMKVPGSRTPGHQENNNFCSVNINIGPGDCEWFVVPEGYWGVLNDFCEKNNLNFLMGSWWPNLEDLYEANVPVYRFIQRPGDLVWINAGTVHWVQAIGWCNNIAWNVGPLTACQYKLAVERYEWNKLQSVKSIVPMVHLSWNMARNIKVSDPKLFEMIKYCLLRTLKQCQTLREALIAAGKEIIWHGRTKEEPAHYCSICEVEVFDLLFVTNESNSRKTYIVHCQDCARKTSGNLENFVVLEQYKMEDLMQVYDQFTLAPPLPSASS

[10] = biological target: T5, Lysine-specific demethylase 4C
[11] = biological target: Lysine-specific histone demethylase 1A (Homo sapiens, UniProt O60341)
[12] = biological target: T3, Lysine-specific demethylase 2B; experiment: biochemical; remark: listed apart in the source

T2 sequence (Q9UGL1 whole entry): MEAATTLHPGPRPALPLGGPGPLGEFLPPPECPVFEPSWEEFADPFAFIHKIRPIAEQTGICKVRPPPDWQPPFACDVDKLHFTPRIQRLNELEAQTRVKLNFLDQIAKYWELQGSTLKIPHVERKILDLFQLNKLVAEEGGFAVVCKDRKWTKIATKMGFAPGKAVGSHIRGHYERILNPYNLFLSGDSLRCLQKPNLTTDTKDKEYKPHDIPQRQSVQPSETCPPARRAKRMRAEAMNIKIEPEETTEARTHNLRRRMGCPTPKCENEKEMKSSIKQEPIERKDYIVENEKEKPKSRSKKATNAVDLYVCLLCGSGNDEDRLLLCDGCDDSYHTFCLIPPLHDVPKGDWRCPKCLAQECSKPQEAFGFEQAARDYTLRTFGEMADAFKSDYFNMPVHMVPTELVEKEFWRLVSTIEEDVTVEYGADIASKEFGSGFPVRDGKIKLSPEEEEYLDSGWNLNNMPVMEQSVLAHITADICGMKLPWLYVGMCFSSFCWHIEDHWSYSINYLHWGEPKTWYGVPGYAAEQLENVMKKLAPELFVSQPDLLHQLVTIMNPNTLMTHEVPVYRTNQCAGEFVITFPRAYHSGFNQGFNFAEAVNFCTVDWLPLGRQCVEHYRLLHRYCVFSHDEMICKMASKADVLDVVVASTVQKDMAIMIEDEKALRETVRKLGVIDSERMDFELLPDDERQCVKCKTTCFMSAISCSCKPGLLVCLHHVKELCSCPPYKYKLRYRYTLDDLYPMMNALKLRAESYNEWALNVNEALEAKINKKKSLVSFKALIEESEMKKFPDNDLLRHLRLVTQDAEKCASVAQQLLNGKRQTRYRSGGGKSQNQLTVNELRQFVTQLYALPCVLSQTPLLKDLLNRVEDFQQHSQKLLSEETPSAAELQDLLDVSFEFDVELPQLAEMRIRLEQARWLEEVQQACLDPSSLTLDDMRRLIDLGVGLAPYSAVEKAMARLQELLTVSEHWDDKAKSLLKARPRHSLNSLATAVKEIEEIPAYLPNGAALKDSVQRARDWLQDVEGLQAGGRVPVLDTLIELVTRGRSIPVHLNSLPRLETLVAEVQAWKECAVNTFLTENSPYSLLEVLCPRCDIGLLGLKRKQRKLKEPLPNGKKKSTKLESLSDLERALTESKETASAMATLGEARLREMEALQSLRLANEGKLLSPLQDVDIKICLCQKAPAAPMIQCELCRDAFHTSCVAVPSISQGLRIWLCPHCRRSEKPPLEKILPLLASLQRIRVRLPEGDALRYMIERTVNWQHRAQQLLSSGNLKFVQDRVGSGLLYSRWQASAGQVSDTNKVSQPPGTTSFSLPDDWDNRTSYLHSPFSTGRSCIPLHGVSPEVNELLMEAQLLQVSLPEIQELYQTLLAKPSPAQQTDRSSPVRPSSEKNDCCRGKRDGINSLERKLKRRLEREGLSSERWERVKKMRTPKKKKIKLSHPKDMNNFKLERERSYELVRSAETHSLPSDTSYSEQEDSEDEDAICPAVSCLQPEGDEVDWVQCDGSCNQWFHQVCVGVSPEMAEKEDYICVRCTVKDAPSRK
T1 sequence (P29375 whole entry): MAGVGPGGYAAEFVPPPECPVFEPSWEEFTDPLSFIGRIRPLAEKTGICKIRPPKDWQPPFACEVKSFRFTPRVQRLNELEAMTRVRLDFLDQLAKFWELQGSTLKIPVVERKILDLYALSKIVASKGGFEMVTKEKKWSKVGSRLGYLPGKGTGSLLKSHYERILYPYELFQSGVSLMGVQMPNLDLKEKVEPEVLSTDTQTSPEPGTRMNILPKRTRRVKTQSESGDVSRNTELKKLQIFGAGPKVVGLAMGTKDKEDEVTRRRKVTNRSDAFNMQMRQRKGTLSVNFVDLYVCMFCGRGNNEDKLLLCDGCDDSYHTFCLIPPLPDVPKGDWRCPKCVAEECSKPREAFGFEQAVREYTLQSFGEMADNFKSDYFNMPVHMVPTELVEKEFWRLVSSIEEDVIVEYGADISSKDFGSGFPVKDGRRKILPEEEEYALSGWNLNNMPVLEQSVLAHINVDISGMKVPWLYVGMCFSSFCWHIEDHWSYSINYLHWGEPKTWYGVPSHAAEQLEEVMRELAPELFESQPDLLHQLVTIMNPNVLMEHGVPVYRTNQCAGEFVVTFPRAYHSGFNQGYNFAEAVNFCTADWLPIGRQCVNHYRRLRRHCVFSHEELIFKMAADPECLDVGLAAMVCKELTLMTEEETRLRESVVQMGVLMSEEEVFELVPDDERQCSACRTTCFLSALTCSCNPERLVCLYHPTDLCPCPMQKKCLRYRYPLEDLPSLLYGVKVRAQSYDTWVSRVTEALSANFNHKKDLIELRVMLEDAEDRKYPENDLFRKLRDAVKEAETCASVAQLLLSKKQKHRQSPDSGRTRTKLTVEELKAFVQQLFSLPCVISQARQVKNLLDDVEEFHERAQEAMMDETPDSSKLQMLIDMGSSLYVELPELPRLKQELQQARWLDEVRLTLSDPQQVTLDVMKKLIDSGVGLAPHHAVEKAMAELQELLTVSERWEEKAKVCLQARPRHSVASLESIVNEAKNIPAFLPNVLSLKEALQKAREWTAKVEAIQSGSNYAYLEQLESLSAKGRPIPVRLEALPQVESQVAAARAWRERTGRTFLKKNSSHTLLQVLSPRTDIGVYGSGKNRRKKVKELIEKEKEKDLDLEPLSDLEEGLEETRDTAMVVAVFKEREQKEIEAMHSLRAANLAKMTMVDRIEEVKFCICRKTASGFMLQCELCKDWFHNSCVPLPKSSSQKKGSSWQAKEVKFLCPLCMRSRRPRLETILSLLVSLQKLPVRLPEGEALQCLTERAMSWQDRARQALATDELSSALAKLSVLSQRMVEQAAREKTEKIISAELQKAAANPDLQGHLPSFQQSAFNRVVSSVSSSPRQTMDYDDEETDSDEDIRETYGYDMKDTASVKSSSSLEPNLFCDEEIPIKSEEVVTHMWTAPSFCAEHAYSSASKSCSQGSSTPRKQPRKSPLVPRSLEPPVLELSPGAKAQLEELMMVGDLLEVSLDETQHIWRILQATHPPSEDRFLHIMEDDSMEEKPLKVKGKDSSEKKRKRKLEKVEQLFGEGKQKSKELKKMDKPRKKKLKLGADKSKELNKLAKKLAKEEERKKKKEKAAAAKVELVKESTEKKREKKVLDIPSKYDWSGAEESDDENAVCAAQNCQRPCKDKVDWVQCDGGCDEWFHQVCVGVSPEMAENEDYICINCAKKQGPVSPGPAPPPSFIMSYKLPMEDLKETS

Cn1cnc(-c2cc(-c3nn[nH]n3)ccn2)c1
IC50 [1]: > 10000 nM | IC50 [2]: 100 nM | IC50 [3]: < 100 nM | IC50 [4]: > 10000 nM | IC50 [5]: > 10000 nM | IC50 [6]: 100 nM | IC50 [7]: > 10000 nM

O=C(O)c1ccnc2cc(OCc3ccc(Cl)c(OCC4CC4)c3)[nH]c12
IC50 [2]: < 100 nM | IC50 [5]: 1000 nM | IC50 [6]: 100 nM | IC50 [7]: < 100 nM

COC(=O)c1ccnc2cc(OCc3ccc(Cl)c(OCC4CC4)c3)[nH]c12
IC50 (cells): < 100 nM

O=C(O)c1ccncc1Nc1nn(C2CCCC2)c2ccc(F)cc12
IC50 [1]: 100 nM | IC50 [2]: < 100 nM | IC50 [4]: 100 nM | IC50 [6]: < 100 nM | IC50 [7]: 100 nM

O=C(O)c1ccnc(CNCc2nccn2C/C=C/c2ccccc2)c1
IC50 [8]: < 250 nM | IC50 [9]: > 2500 nM | IC50 [10]: > 2500 nM

CC(C)Cn1nc(Nc2cnccc2C(=O)NC#N)c2cc(F)ccc21
IC50 [2]: < 100 nM | IC50 [6]: < 100 nM | IC50 [7]: 1000 nM

O=C(O)c1ccnc(-n2ncc(CCO)c2OCc2ccc(F)cc2)c1
IC50 [2]: < 100 nM | IC50 [6]: < 100 nM | IC50 [7]: 1000 nM

Cc1cc(Cl)ccc1COc1ccnn1-c1cc(C(=O)O)ccn1
IC50 [1]: < 100 nM | IC50 [2]: < 100 nM | IC50 [3]: 100 nM | IC50 [4]: < 100 nM | IC50 [6]: < 100 nM | IC50 [7]: 100 nM

CNC(=O)c1ccnc2cc(OCc3ccc(Cl)c(OC(F)(F)F)c3)[nH]c12
IC50 (cells): < 100 nM

O=C(O)CC1(N2CCC(N[C@@H]3C[C@H]3c3ccccc3)CC2)CN(CCC(F)(F)F)C1
IC50 [11]: < 100 nM

CN(C)CC(=O)N1CCC(CN[C@@H]2C[C@H]2c2ccccc2)(Cc2cccc(C#N)c2)CC1
IC50 [11]: < 100 nM

COC(=O)c1ccnc2cc(OCc3ccc(Cl)c(OC(F)(F)F)c3)[nH]c12
IC50 (cells): < 100 nM

O=C(O)c1cnnc(CNCC(=O)N2CCCCC2)c1
IC50 [8]: < 250 nM | IC50 [9]: > 2500 nM | IC50 [10]: < 250 nM

O=C(O)c1ccncc1NCC12CC3CC(CC(C3)C1)C2
IC50 [2]: 100 nM | IC50 (cells): > 10000 nM | IC50 [6]: 100 nM | IC50 [7]: < 100 nM

Cn1nc(Nc2cnccc2C(=O)O)c2cccnc21
IC50 [1]: 100 nM | IC50 [2]: < 100 nM | IC50 [4]: 100 nM | IC50 [6]: < 100 nM | IC50 [7]: 100 nM

COC1(CN[C@@H]2C[C@H]2c2ccccc2)CCN(S(=O)(=O)c2ccn(C)n2)CC1
IC50 [11]: < 100 nM

COc1cc(COc2cc3nccc(C(=O)O)c3[nH]2)ccc1Cl
IC50 [2]: 1000 nM | IC50 [5]: 100 nM | IC50 [6]: 1000 nM | IC50 [7]: < 100 nM

O=C(O)c1ccnc2cc(OCc3ccc(Cl)c(OC(F)(F)F)c3)[nH]c12
IC50 [2]: < 100 nM | IC50 [5]: 100 nM | IC50 [6]: 100 nM | IC50 [7]: < 100 nM

Cn1cnc(-c2cc(C(=O)O)ccn2)c1-c1ccc(OCC2CC2)cc1
IC50 [1]: 1000 nM | IC50 [2]: < 100 nM | IC50 [3]: 100 nM | IC50 [4]: 1000 nM | IC50 [6]: < 100 nM | IC50 [7]: 100 nM

COC(=O)c1ccnc2cc(OCc3ccc(Cl)c(OC)c3)[nH]c12
IC50 (cells): < 100 nM

COc1ccc(-c2c(-c3cc(C(=O)O)ccn3)ncn2C)cc1
IC50 [1]: 1000 nM | IC50 [2]: 100 nM | IC50 [3]: 100 nM | IC50 [4]: 1000 nM | IC50 [6]: 100 nM | IC50 [7]: 1000 nM

COC(=O)c1ccnc(-n2nccc2OCc2ccc(Cl)cc2)c1
IC50 [1]: 100 nM | IC50 [4]: 100 nM

Cn1cnc(-c2cc(C(=O)O)ccn2)c1
IC50 [1]: > 10000 nM | IC50 [2]: < 100 nM | IC50 [3]: < 100 nM | IC50 [4]: > 10000 nM | IC50 [5]: < 100 nM | IC50 [6]: < 100 nM | IC50 [7]: < 100 nM

CCN1CCC[C@H](CNCc2cc(C(=O)O)ccn2)C1=O
IC50 [8]: < 250 nM | IC50 [12]: < 250 nM | IC50 [9]: > 2500 nM

O=C(O)c1ccnc(-n2nccc2OCc2ccc(Cl)cc2)c1
IC50 [1]: 100 nM | IC50 [2]: < 100 nM | IC50 [4]: 100 nM | IC50 [6]: < 100 nM | IC50 [7]: < 100 nM

Nc1ccnc(N2CCC(N[C@@H]3C[C@H]3c3ccccc3)CC2)n1
IC50 [11]: < 100 nM
